Measured values: patent US6962713B2, “Spot-on formulations for combating parasites” (Merial, priority 1919, dated 2005)
Several values for one entry are separate records, joined by “and”; a condition that tells them apart may be missing. Identical values can stand only once.

What was measured:
[1] = Plasma kinetics of ivermectin after oral administration of Cardomec to dogs; assay type: in vivo, dog
Procedure: Five male Beagle dogs received a dose of approximately 6 μg.kg^−1 of ivermectin, i.e., one 68 μg Cardomec® tablet per dog. The animals were fasted prior to administration and up to 6 hours after treatment to prevent a possible interaction with food.
Blood samples were collected at intervals up to 28 days post-dosing. The determination of ivermectin in dog plasma was carried out by HPLC using fluorescence detection after derivatization. The limit of quantification was 100 pg.ml^−1.

[2] = Plasma kinetics of ivermectin after spot-on application 250 μg.kg^−1 in combination with fipronil to cats; assay type: in vivo, cat; conditions: spot-on 0.25% ivermectin + 10% fipronil, 5 cats
Procedure: This study was undertaken in order to assess the pharmacokinetic behaviour of ivermectin after a topical (spot-on) application of a formulation containing 0.25% of ivermectin and 10% of fipronil to the cat. The formulation was as follows: […]
Five male european cats were treed with the spot-on formulation at a dose of 0.1 ml.kg^−1 (i.e. 250 μg.kg^−1 of ivermectin and 10 mg.kg^−1 of fipronil).
Blood samples were collected at intervals up to 42 days post-treatment.
The determination of ivermectin in cat plasma was carried out by a validated HPLC method using fluorescence detection, with a limit of quantification of 100 pg.ml^−1.

[3] = ivermectin, cited from earlier work
[4] = Plasma kinetics of ivermectin after topical (spot-on) application 250 μg.kg in combination with fipronil to dogs; assay type: in vivo, dog; conditions: spot-on 0.25% ivermectin + 10% fipronil, 5 dogs
Procedure: This study was undertaken in order to assess the pharmacokinetic behaviour of ivermectin and fipronil after a topical (spot-on) application of ivermectin in combination with fipronil to the dog.
Five male Beagle dogs were applied a spot-on formulation combining ivermectin and fipronil at a dose of 0.1 ml.kg^−1, i.e. 250 μg.kg and 10 mg.kg^−1 of ivermectin and fipronil, respectively. Blood samples were collected at intervals up to 28 days post-treatment. The determination of ivermectin in dog plasma was carried out by HPLC, using fluorescence detection, with a limit of quantification of 100 pg.ml^−1. The determination of fipronil and its sulfone metabolite (RM1602) was carried out by HPLC with UV detection with a limit of quantification of 20 ng.ml^−1 for fipronil and RM1602.
The formulation tested was as follows: […]

heartworms = conditions: Cardomec oral, 6 μg.kg^−1 of ivermectin, dog; known; cited from earlier work
[5] = Cardomec oral 6 μg.kg^−1, 5 fasted dogs, mean
[6] = Cardomec oral 6 μg.kg^−1, 5 fasted dogs, range over dogs
[7] = Cardomec oral 6 μg.kg^−1, fasted dogs, individual dogs

ivermectin
AUC(0-∞), Mean [1, 5]: 1859 pg·days/mL
AUC, mean [1, 5]: 44.604 ng·h/mL
Cmax, Mean [1, 5]: 1.362 ng/mL
AUC(0-t), Range [1, 6]: [187-3246] pg.d.ml^−1
AUC(0-∞), Range [1, 6]: [382-3789] pg.d.ml^−1
Plasma concentrations of ivermectin, Mean ([1]; Cardomec oral 6 μg.kg^−1, fasted dogs, 0 h, mean of 5 dogs): BLQ (Below the Limit of Quantification (100 pg.ml^−1))
Plasma concentrations of ivermectin, Mean ([1]; Cardomec oral 6 μg.kg^−1, fasted dogs, 0.75 h, mean of 5 dogs (BLQ taken as 0)): 0.119 ng/mL
Plasma concentrations of ivermectin, Mean ([1]; Cardomec oral 6 μg.kg^−1, fasted dogs, 1.5 h, mean of 5 dogs (BLQ taken as 0)): 0.536 ng/mL
Plasma concentrations of ivermectin ([1]; Cardomec oral 6 μg.kg^−1, fasted dogs, 2 h, individual dogs): 1132 pg.ml^−1 and 674 pg.ml^−1 and BLQ (Below the Limit of Quantification (100 pg.ml^−1)) and 1817 pg.ml^−1 and 264 pg.ml^−1
Plasma concentrations of ivermectin, Mean ([1]; Cardomec oral 6 μg.kg^−1, fasted dogs, 2 h, mean of 5 dogs (BLQ taken as 0)): 0.777 ng/mL
Plasma concentrations of ivermectin, Mean ([1]; Cardomec oral 6 μg.kg^−1, fasted dogs, 3 h, mean of 5 dogs): 1.199 ng/mL
Plasma concentrations of ivermectin, Mean ([1]; Cardomec oral 6 μg.kg^−1, fasted dogs, 4 h, mean of 5 dogs): 1.098 ng/mL
Plasma concentrations of ivermectin, Mean ([1]; Cardomec oral 6 μg.kg^−1, fasted dogs, 6 h, mean of 5 dogs): 0.956 ng/mL
Plasma concentrations of ivermectin, Mean ([1]; Cardomec oral 6 μg.kg^−1, fasted dogs, 8 h, mean of 5 dogs): 0.769 ng/mL
Plasma concentrations of ivermectin, Mean ([1]; Cardomec oral 6 μg.kg^−1, fasted dogs, 10 h, mean of 5 dogs): 0.798 ng/mL
Plasma concentrations of ivermectin, Mean ([1]; Cardomec oral 6 μg.kg^−1, fasted dogs, 12 h, mean of 5 dogs): 0.783 ng/mL
Plasma concentrations of ivermectin, Mean ([1]; Cardomec oral 6 μg.kg^−1, fasted dogs, 24 h, mean of 5 dogs): 0.525 ng/mL
Plasma concentrations of ivermectin, Mean ([1]; Cardomec oral 6 μg.kg^−1, fasted dogs, 32 h, mean of 5 dogs (BLQ taken as 0)): 0.338 ng/mL
Plasma concentrations of ivermectin, Mean ([1]; Cardomec oral 6 μg.kg^−1, fasted dogs, D 2, mean of 5 dogs (ND included as BLQ = 0)): 0.268 ng/mL
Plasma concentrations of ivermectin, Mean ([1]; Cardomec oral 6 μg.kg^−1, fasted dogs, D 3, mean of 5 dogs (ND included as BLQ = 0)): 0.173 ng/mL
Plasma concentrations of ivermectin, Mean ([1]; Cardomec oral 6 μg.kg^−1, fasted dogs, D 4, mean of 5 dogs (ND, BLQ taken as 0)): 0.108 ng/mL
Plasma concentrations of ivermectin, Mean ([1]; Cardomec oral 6 μg.kg^−1, fasted dogs, D 5, mean of 5 dogs, one value above the limit of quantification): BLQ* (Below the Limit of Quantification (100 pg.ml^−1))
Plasma concentrations of ivermectin, Mean ([1]; Cardomec oral 6 μg.kg^−1, fasted dogs, D 7, mean of 5 dogs, one value above the limit of quantification): BLQ* (Below the Limit of Quantification (100 pg.ml^−1))
Plasma concentrations of ivermectin, Mean ([1]; Cardomec oral 6 μg.kg^−1, fasted dogs, D 9, mean of 5 dogs): BLQ (Below the Limit of Quantification (100 pg.ml^−1))
Plasma concentrations of ivermectin, Mean ([1]; Cardomec oral 6 μg.kg^−1, fasted dogs, D 14, mean of 5 dogs): BLQ (Below the Limit of Quantification (100 pg.ml^−1))
Plasma concentrations of ivermectin, Mean ([1]; Cardomec oral 6 μg.kg^−1, fasted dogs, D 21, mean of 5 dogs): BLQ (Below the Limit of Quantification (100 pg.ml^−1))
AUC(0-t) [1, 7]: 3246 pg·days/mL and 1545 pg·days/mL and 743 pg·days/mL and 1949 pg·days/mL and 187 pg·days/mL
AUC(0-∞) [1, 7]: 3789 pg·days/mL and 1813 pg·days/mL and 1027 pg·days/mL and 2282 pg·days/mL and 382 pg·days/mL
Cmax [1, 7]: 2.964 ng/mL and 0.911 ng/mL and 0.557 ng/mL and 1.955 ng/mL and 0.422 ng/mL
tmax [1, 7]: 3 h (2×) and 12 h (2×) and 4 h
t½ [1, 7]: 64.5 h and 33.5 h and 37.5 h and 39.2 h and 26.0 h and 64.6 h and 33.6 h and 37.4 h and 39.1 h and 25.9 h
t1/2 β, Mean ([2]; 250 μg.kg^−1 ivermectin, harmonic mean): 9.1 d and 9.07* d
AUC (0-Clast), Mean ([2]; 250 μg.kg^−1 ivermectin, mean): 23441 pg·days/mL
AUC(0-∞), Mean ([2]; 250 μg.kg^−1 ivermectin, mean): 26546 pg·days/mL
Tlast, Mean ([2]; 250 μg.kg^−1 ivermectin, mean): 35 days
tmax, Mean ([2]; 250 μg.kg^−1 ivermectin, mean): 134 h
AUC(0-∞), Range ([2]; 250 μg.kg^−1 ivermectin, range over cats): [14199-52232] pg.d.ml^−1
Cmax, Mean ([2]; 0.1 ml.kg^−1 (250 μg.kg^−1 ivermectin), mean): 1.465 ng/mL
tmax, literature data ([3]; food state of dogs not specified): 2 to 4 h
AUC, mean literature values [3]: 107.318 ng·h/mL
Cmax, mean literature values [3]: more than 2000 pg. ml^−1
t½, Mean ([4]; 250 μg.kg ivermectin, harmonic mean): 132 h
AUC(0-t), Mean ([4]; 250 μg.kg ivermectin, mean): 19218 pg·days/mL
AUC(0-∞), Mean ([4]; 250 μg.kg ivermectin, mean): 22842 pg·days/mL
Tlast, Mean ([4]; 250 μg.kg ivermectin, mean): 21 days
tmax, Mean ([4]; 250 μg.kg ivermectin, mean): 110 h
Cmax, Mean ([4]; 0.1 ml.kg^−1 (250 μg.kg ivermectin), mean): 1.618 ng/mL
effective on heartworms (heartworms): 100%
